Test [1] relates to HCT116 cells. Put plainly: Growth inhibitory activity on HCT116 cell (CellTiter-Glo). It counts as cell-based. The note with it: table head: 10 μM (text b2498: 1 μM), 3 days incubation; for inhibition at 10 µM: Homo sapiens, HCT-116, 72 h, read-out: HCT116 cell proliferation inhibitory rate (%) at 10 μM. As to the method:
The growth inhibitory activity of the compound on HCT116 cell was evaluated by the following method.
HCT116 cells were seeded in a 384 well blackplate at 900 cells/30 μL/well, and maintained in an RPMI medium (Wako)) containing an assay medium (2% fetal bovine serum, 50 Unit/mL penicillin, 50 μg/mL streptomycin (Invitrogen). The next day, a test compound dissolved in dimethyl sulfoxide (DMSO) was diluted with the assay medium, and the obtained compound solution was added by 10 μL to each well of a plate containing HCT116 cells and incubated at 37° C., 5% CO2 (test compound addition group).
A similar reaction was performed without adding a test compound (test compound non-addition group).
Furthermore, a similar reaction was performed under the conditions without adding HCT116 cell and a test compound (control group).
After 3 days, 20 μL of a CellTiter-Glo reagent (Promega KK) was added to the well, and the mixture was stirred for 10 min. Thereafter, the luminescence value of each well was measured by the EnVision™ multilabel counter (Perkin Elmer Inc.).
The HCT116 cell proliferation inhibitory rate (%) of the test compound was determined by the following calculation formula. (1−(luminescence of test compound addition group−luminescence of control group)÷(luminescence of test compound nonaddition group−luminescence of control group))×100

The target in test [2] is T1, human ACC1 (Homo sapiens, UniProt Q13085).
T1 construct: His tag (from vector pFAST-BacHTc; protein captured on Ni-NTA) (N); made in house; host or cells: SF-9 insect cells, recombinant baculovirus BAC-ACC1
Briefly: Measurement of ACC1 inhibitory activity (Malonyl-CoA production, RapidFire-mass spectrometry). It counts as biochemical. Conditions: 10 μM of the test compound, recombinant human ACC1; for inhibition at 10 µM: read-out: ACC1 inhibitory rate (%) at 10 μM. Here is the method: (1) Cloning of Human ACC1 Gene and Preparation of Recombinant Baculovirus
Human ACC1 gene was cloned by PCR using a human liver cDNA library (Clontech) as a template and Primer 1 and Primer 2 shown below. Primer 1 and Primer 2 were prepared by adding SalI, NotI restriction enzyme recognition sequences based on the information of the base sequence of human ACC1 gene (Genbank Accession U19822).
PCR was performed using Pyrobest DNA polymerase (TAKARA BIO INC.). The obtained PCR product was cloned to pT7 Blue vector (Novagen) and after confirmation of the base sequence, digested with restriction enzymes SalI and XbaI. The obtained DNA fragment was inserted into pFAST-BacHTc (Invitrogen) digested with restriction enzymes SalI and XbaI to give expression plasmid ACC1/pFAST-BacHTc.
Using the expression plasmid ACC1/pFAST-BacHTc and BAC-TO-BAC Baculovirus Expression System (Invitrogen), virus stock BAC-ACC1 of recombinant Baculovirus was prepared.
(2) Preparation of ACC1 Protein
SF-9 cells (Invitrogen) were inoculated to a medium (10 L) for insect cells (Sf-900IISFM medium (Invitrogen) containing 5% fetal bovine serum (Trace), 50 mg/L Gentamicin (Wako Pure Chemical Industries, Ltd.), 0.1% Pluronic F-68 (Invitrogen)) at 1.0×10^6 cells/mL, and cultured with shaking in Wave Bioreactor (GE Healthcare) at 27° C., 20 rpm, rocking angle 10°, oxygen concentration 30%.
On day 2 of the culture, recombinant Baculovirus BAC-ACC1 was added, and the cells were cultured for 3 days. The culture medium was centrifuged at 4000×g for 10 min to give virus-infected cells. The cells were washed with phosphate buffered saline (Invitrogen) and centrifuged under the same conditions. The obtained cells were cryopreserved at −80° C.
The cryopreserved cells were thawed in ice and suspended in 800 mL of 25 mM HEPES buffer (pH 7.5) containing 10% Glycerol, 0.3 M NaCl, 1 mM EDTA, 25 mM Sodium β-Glycerophosphate and 1 mM Sodium Orthovanadate, and supplemented with Complete Protease Inhibitor (Roche). The obtained suspension was homogenized two times in a polytron homogenizer (Kinematica) at 20,000 rpm for 20 sec. The obtained cell disruption solution was clarified by centrifugation at 186,000×g for 60 min and the supernatant was passed through Ni-NTA Superflow Cartridges (5 mL) (QUIAGEN). Furthermore, it was washed with 25 mM HEPES buffer (pH 7.5) containing 20 mM Imidazole, 0.3 M NaCl, and eluted with 25 mM HEPES buffer (pH 7.5) containing 250 mM Imidazol, 0.3 M NaCl. The eluate was concentrated by Amicon Ultra-15 (Nihon Millipore K.K.) having a fraction molecular weight of 50K. The obtained concentrate was subjected to gel filtration with 50 mM HEPES buffer (pH 7.5) containing 10 mM MgCl2, 2 mM dithiothreitol, 10 mM tripotassium citrate, 0.3 M NaCl by using HiLoad 26/60 Superdex200 prep grade gel filtration column (GE Healthcare) to give ACC1. The obtained ACC1 was cryopreserved at −80° C.
(3) Measurement of ACC1 Inhibitory Activity
ACC1 obtained in the above-mentioned (2) was diluted with an enzyme reaction buffer (50 mM HEPES (pH 7.5), 10 mM MgCl2, 10 mM Tripottasium Citrate, 2 mM Dithiothreitol, 0.001% Fatty acid free BSA) to a concentration of 0.2 μg/ml, and the mixture was added to each well of a 384 well assay plate by 10 μl. A test compound dissolved in dimethyl sulfoxide (DMSO) was diluted with an enzyme reaction buffer and the resulting solution (5 μl) was added to each well. The mixture was incubated at room temperature for 60 min. Then, a substrate solution (50 mM KHCO3, 200 μM ATP, 200 μM Acetyl-CoA, 5 μl) was added to each well, and the mixture was reacted at room temperature for 30 min. The reaction was quenched by adding a reaction quenching liquid (1.3% formic acid, 0.2 μM Malonyl-^13C3-CoA) by 60 μL each to the obtained reaction mixtures (test compound addition group).
In addition, a reaction was performed in the same manner as above and without adding the test compound (test compound non-addition group). […]

In the case of `CC(=O)NC(C)c1ccc2cc(-c3ccc(Oc4cccc(OCC5CC5)c4)nc3)oc2c1` (stereo not shown) [Example 67, N-(1-(2-(6-(3-(cyclopropylmethoxy)phenoxy)pyridin-3-yl)-1-benzofuran-6-yl)ethyl)acetamide], the inhibition at 10 µM in test [1] was 38%; in test [2], 97%.
As for `CC(=O)NC(C)c1ccc2cc(-c3ccc(Oc4cccc(OC[C@@H]5CC5(F)F)c4)nc3)oc2c1` (stereo partly drawn) [Example 68, N-(1-(2-(6-(3-(((1S)-2,2-difluorocyclopropyl)methoxy)phenoxy)pyridin-3-yl)-1-benzofuran-6-yl)ethyl)acetamide], the inhibition at 10 µM in test [1] is 39%; in test [2], 100%.
Regarding `CC(=O)NC(C)c1ccc2oc(-c3ccc(Oc4cccc(OCC5CC5)c4)nc3)nc2c1` (stereo not shown) [Example 71, N-(1-(2-(6-(3-(cyclopropylmethoxy)phenoxy)pyridin-3-yl)-1,3-benzoxazol-5-yl)ethyl)acetamide], the inhibition at 10 µM was 41% in test [1] and 95% in test [2].
The matching figures for `CC(=O)NC(C)c1ccc2sc(-c3ccc(Oc4cccc(OCC5CC5)c4)cc3)cc2c1` (stereo not shown) [Example 73, N-(1-(2-(4-(3-(cyclopropylmethoxy)phenoxy)phenyl)-1-benzothiophen-5-yl)ethyl)acetamide]: 28% and 90%.
`CC(=O)NC(C)c1ccc2sc(-c3ccc(Oc4cccc(OCC5CC5)c4)nc3)nc2c1` (stereo not shown) [Example 75, N-(1-(2-(6-(3-(cyclopropylmethoxy)phenoxy)pyridin-3-yl)-1,3-benzothiazol-5-yl)ethyl)acetamide]: the results for the inhibition at 10 µM in test [1] and in test [2] were 40% and 94%, respectively.
With `CC(=O)NC(C)c1ccc2nc(-c3ccc(Oc4cccc(OC[C@@H]5CC5(F)F)c4)cn3)oc2c1` (stereo partly drawn) [Example 76, N-(1-(2-(5-(3-(((1S)-2,2-difluorocyclopropyl)methoxy)phenoxy)pyridin-2-yl)-1,3-benzoxazol-6-yl)ethyl)acetamide], the inhibition at 10 µM in test [1] worked out at 45%; in test [2], 99%.
As for `CC(=O)NC(C)c1ccc2nc(-c3ccc(Oc4cccc(OC[C@@H]5CC5(F)F)c4)nc3)oc2c1` (stereo partly drawn) [Example 80, N-(1-(2-(6-(3-(((1S)-2,2-difluorocyclopropyl)methoxy)phenoxy)pyridin-3-yl)-1,3-benzoxazol-6-yl)ethyl)acetamide], the values for the inhibition at 10 µM in test [1] and in test [2] were 33% and 100%, respectively.
For `CC(=O)NC(C)c1ccc2nc(-c3ccc(Oc4cc(OCC5CC5)ccn4)cc3)oc2c1` (stereo not shown) [Example 82, N-(1-(2-(4-((4-(cyclopropylmethoxy)pyridin-2-yl)oxy)phenyl)-1,3-benzoxazol-6-yl)ethyl)acetamide], the values for the inhibition at 10 µM in test [1] and in test [2] were 40% and 98%, respectively.
On to `CC(=O)NC(C)c1ccc2cc(-c3ccc(Oc4cccc(OCC5CC5)c4)cc3)nn2c1` (stereo not shown) [Example 86, N-(1-(2-(4-(3-(cyclopropylmethoxy)phenoxy)phenyl)pyrazolo[1,5-a]pyridin-6-yl)ethyl)acetamide], for which the inhibition at 10 µM in test [1] worked out at 34%; in test [2], 95%.
Take `CC(=O)NC(C)c1ccc2nc(-c3ccc(Oc4cccc(OCC5CC5)c4)cc3)oc2c1F` (stereo not shown) [Example 90, N-(1-(2-(4-(3-(cyclopropylmethoxy)phenoxy)phenyl)-7-fluoro-1,3-benzoxazol-6-yl)ethyl)acetamide]: the inhibition at 10 µM was determined as 22% in test [1] and 101% in test [2].
For `CC(=O)NC(C)C1CCc2nc(-c3ccc(Oc4cccc(OCC5CC5)c4)cc3)oc2C1` (stereo not shown) [Example 95, N-(1-(2-(4-(3-(cyclopropylmethoxy)phenoxy)phenyl)-4,5,6,7-tetrahydro-1,3-benzoxazol-6-yl)ethyl)acetamide], the inhibition at 10 µM turned out to be 11% in test [1] and 97% in test [2].
Turning to `CC(=O)NC(C)C1CCc2nc(-c3ccc(Oc4cccc(OCC5CC5)c4)cc3)oc2C1` (stereo not shown) [Example 95b, N-(1-(2-(4-(3-(cyclopropylmethoxy)phenoxy)phenyl)-4,5,6,7-tetrahydro-1,3-benzoxazol-6-yl)ethyl)acetamide], the “HCT116 cell proliferation inhibitory rate (%) at 10 μM” value in test [1] is 20%. Moreover, in test [2] (10 µM), the “ACC1 inhibitory rate (%) at 10 μM” value was 96%.
Regarding `CC(=O)NC(C)c1ccc2nc(-c3ccc(Oc4cccc(OCC5CC5)c4)nn3)oc2c1` (stereo not shown) [Example 96, N-(1-(2-(6-(3-(cyclopropylmethoxy)phenoxy)pyridazin-3-yl)-1,3-benzoxazol-6-yl)ethyl)acetamide], the results for the inhibition at 10 µM in test [1] and in test [2] were 23% and 100%, respectively.
Regarding `CC(=O)NC(C)c1ccc2nc(-c3cnc(Oc4cccc(OCC5CC5)c4)cc3C)oc2c1` (stereo not shown) [Example 97, N-(1-(2-(6-(3-(cyclopropylmethoxy)phenoxy)-4-methylpyridin-3-yl)-1,3-benzoxazol-6-yl)ethyl)acetamide], the inhibition at 10 µM in test [1] worked out at 22%; in test [2], 92%.
In the case of `C[C@H](NC(N)=O)c1ccc2nc(-c3ccc(Oc4cccc(OCC5CC5)c4)nc3)oc2c1` [Example 98b, 1-((1S)-1-(2-(6-(3-(cyclopropylmethoxy)phenoxy)pyridin-3-yl)-1,3-benzoxazol-6-yl)ethyl)urea], the inhibition at 10 µM in test [1] was determined as 47%; in test [2] it was 98%.
In the same order, the values of `COC(=O)NC(C)c1ccc2nc(-c3ccc(Oc4cccc(OCC5CC5)c4)nc3)oc2c1` (stereo not shown) [Example 99, methyl (1-(2-(6-(3-(cyclopropylmethoxy)phenoxy)pyridin-3-yl)-1,3-benzoxazol-6-yl)ethyl)carbamate] are 26% and 98%.
With `CNC(=O)NC(C)c1ccc2nc(-c3ccc(Oc4cccc(OCC5CC5)c4)nc3)oc2c1` (stereo not shown) [Example 100, 1-(1-(2-(6-(3-(cyclopropylmethoxy)phenoxy)pyridin-3-yl)-1,3-benzoxazol-6-yl)ethyl)-3-methylurea], the inhibition at 10 µM in test [1] stood at 28%; in test [2] it was 94%.

Source of the values: patent US10301292B2, “Bicyclic compound” (Takeda Pharmaceutical Company Limited, priority 2014, dated 2019).
